According to patent US11026944B2, “Compositions and methods for treating insomnia” (Eisai R&D Management Co., Ltd., priority 2014, dated 2021):
Like-named read-outs stand apart in the source and are kept apart here.

Assays:
healthy adult subjects [1] = experiment: 002 Study: PK-PD exploratory analysis of next-day residual sleepiness; format: in vivo, human; conditions: 9-10 hours postdose (1-2 hours after morning awakening), Day 2
Description: For the PK-PD exploratory analysis of next-day residual sleepiness, population PK model-derived compound A plasma concentrations at 8, 9, and 10 hours following administration on the evening of Day 1 were related to change from baseline on the KSS, PVT Lapses, and DSST at 15 minutes, 1 hour, and 2 hours after waketime on the morning of Day 2, respectively. […] Concentrations below 30 ng/mL (which occur at doses below 25 mg) after 9-10 hours postdose, which correspond to the 1-2 hours after morning awakening, were associated with minimal or no change from baseline on the KSS, PVT Lapses, or DSST.

healthy adult subjects [2] = experiment: 002 Study: next-day residual sleepiness (KSS, PVT, DSST) and Waketime Questionnaire; format: in vivo, human
Description: All subjects were administered PD assessments, including the Karolinska Sleepiness Scale (KSS), Digit Symbol Substitution Test (DSST), and Psychomotor Vigilance Test (PVT) in order to assess acute sleepiness in the interval between dosing and bedtime, as well as next-day residual sleepiness and the level of alertness and ability to concentrate. In addition, a Waketime Questionnaire was administered daily in order to assess quality of sleep on the previous night.
PD effects were assessed by evaluating postdose and next-day functioning on the KSS, DSST, and the PVT, and by self-report of sleep quality on the Waketime Questionnaire. The KSS, DSST, and PVT were performed starting Day-1 at 15 minutes before habitual bedtime; on Days 1 to 15 within 15 minutes after habitual waketime, and at 1, 2, 4, 8, and 12 hours after habitual waketime, and on Days 1 to 14 at 15 minutes predose and 15 minutes postdose. 24-hour Holter recordings were started 30 minutes before bedtime on Day-2 and just prior to dosing on Day 14. Extractions from these recordings were used to conduct ECG analyses, including the HPQT analysis. Waketime Questionnaires were administered on Day 1 to Day 19.
The KSS, PVT, and DSST were administered on each treatment day in the evening predose and postdose to assess the acute effect of compound A on sleepiness. For these timepoints, the daily 15 minutes predose values on the KSS, DSST, and PVT served as a baseline for that day's 15 minutes postdose value (daily baseline). The KSS, PVT, and DSST were also administered throughout the daytime hours subsequent to each dosing evening to assess the effect of compound A on next-day residual sleepiness. For these timepoints, the assessments taken at Day 1, 15 minutes and 1, 2, 4, 8, and 12 hours after habitual waketime served as the baseline for the assessments taken at the corresponding times after habitual waketime on Day 2 to Day 15 (time-matched baseline). Waketime Questionnaires were administered on Day 1 through Day 19 in the morning hours. The predose value on Day 1 was used as the baseline. The difference between placebo and each dose of compound A in change from baseline at each timepoint was calculated along with 95% confidence intervals (CIs). Potential dose-response and time trend were explored as data allowed.

[3] = Single dose study (001 Study) Part A: plasma PK of compound A; format: in vivo; conditions: human, healthy subjects (Part A); for AUC from 0 to 24 h / AUC(0-inf) / AUC(0-t) / Cmax / half-life / Tmax: plasma, po; for AUC from 0 to 24 h: read-out: AUC(0-24) Mean(SD); for AUC(0-inf): read-out: AUC(0-inf) Mean(SD); for AUC(0-t): read-out: AUC(0-t) Mean(SD); for Cmax: read-out: Cmax Mean(SD); for half-life: read-out: t1/2 Median (converted); for Tmax: read-out: tmax Median; for concentration at 9 h: read-out: C9 Mean(SD)
Text: This was a randomized, double-blind, placebo- and active-controlled, sequential, single-dose study. The study consisted of two parts, Part A (healthy subjects) and Part B (otherwise healthy subjects with primary insomnia).
For Part A, 64 healthy subjects were enrolled into cohorts sequentially in a gradual dose escalation manner, to receive either compound A or placebo, and stratified by gender. Each cohort comprised six compound A- and two placebo-treated subjects. All study drugs were administered as single doses using one or more compound A-capsules or compound A-matched placebo capsules due to the test dose. After screening, subjects underwent baseline procedures and randomization on Day-2. Subjects were dosed on Day 1 in the morning after an overnight fast, 1 hour after lights-on. PK blood samples were collected at prespecified timepoints, and PD assessments were performed. Subjects were administered assessments on Day 1 predose and every 2 hours from 2 to 12 hours postdose, and each morning on Days 2 to 6.
For subjects in Part A, Blood samples for determination of plasma concentrations of compound A were collected on Day 1 predose and at 0.25 (15 minutes), 0.5 (30 minutes), 1, 2, 3, 4, 5, 6, 9, 12, 24, 48, 72, 96, 120, 168, and 240 hours after oral administration of compound A, but collected up to 72 hours in the first three cohorts (1, 2.5 and 5 mg compound A groups). PK samples were collected preferentially via an indwelling venous catheter for the first 12 hours and by direct venipuncture thereafter.
Plasma concentrations of compound A were measured using a validated liquid chromatography-mass spectrometry/mass spectrometry (LC-MS/MS) assay.

In the case of `Cc1ncc(OC[C@@]2(c3cccc(F)c3)C[C@H]2C(=O)Nc2ccc(F)cn2)c(C)n1` [Compound A, (1R,2 S)-2-(((2,4-dimethylpyrimidin-5-yl)oxy)methyl)-2-(3-fluorophenyl)-N-(5-fluoropyridin-2-yl) cyclopropanecarboxamide], the “plasma concentration associated with minimal or no change from baseline on KSS, PVT Lapses, DSST” value (healthy adult subjects [1]) is reported as “below 30 ng/mL”, the “next day residual sleepiness as measured by KSS, PVT, DSST” value (healthy adult subjects [2]; 2.5-75 mg once daily for 14 days) is reported as “dose-related increases in both the magnitude and duration” and the “next-day residual sleepiness vs placebo (KSS, PVT, DSST)” value (healthy adult subjects [2]; 2.5-mg and 5-mg dose groups, any time, any treatment day) is reported as “no meaningful difference from placebo”. The “next-day residual sleepiness vs placebo (KSS)” value (healthy adult subjects [2]; 10-mg dose group, within 2 hours after waketime, Day 2 through Day 4) was “Slight differences from placebo”, the “increase in next-day residual sleepiness” value (healthy adult subjects [2]; 25-mg dose group, within 2 hours after waketime) was “more consistent and slightly larger than in the 10-mg dose group” and the “next-day residual sleepiness vs placebo, all assessments” value (healthy adult subjects [2]; 50-mg and 75-mg dose groups) was “consistent and relatively large differences from placebo”. The “Waketime Questionnaire: changes in nighttime sleep” value (healthy adult subjects [2]; any dose group) was “None of the items on the Waketime Questionnaire indicated a systematic pattern of changes in nighttime sleep”, the “measures of sleepiness vs placebo” value (healthy adult subjects [2]; by 12 hours after waketime, any dose group, any day) was “no differences from placebo” and the AUC from 0 to 24 h ([3]; 1 mg, single oral 1 mg) was ~17.2 ng·h/mL. For the same compound, the AUC(0-inf) ([3]; 1 mg, single oral 1 mg) was ~19.8 ng·h/mL, the AUC(0-t) ([3]; 1 mg, single oral 1 mg) was ~19.1 ng·h/mL and the Cmax ([3]; 1 mg, single oral 1 mg) was ~5.3 ng/mL. The half-life ([3]; 1 mg, single oral 1 mg) was ~12.7 h, the Tmax ([3]; 1 mg, single oral 1 mg) was ~1 h and the AUC from 0 to 24 h ([3]; 2.5 mg, single oral 2.5 mg) was 56.8 ng·h/mL. It also gave an AUC(0-inf) ([3]; 2.5 mg, single oral 2.5 mg) of 79.7 ng·h/mL, an AUC(0-t) ([3]; 2.5 mg, single oral 2.5 mg) of 80.2 ng·h/mL and a Cmax ([3]; 2.5 mg, single oral 2.5 mg) of 15.9 ng/mL. The half-life ([3]; 2.5 mg, single oral 2.5 mg) was 30.1 h, the Tmax ([3]; 2.5 mg, single oral 2.5 mg) was 1.01 h and the AUC from 0 to 24 h ([3]; 5 mg, single oral 5 mg) was 94.6 ng·h/mL. For the same compound, the AUC(0-inf) ([3]; 5 mg, single oral 5 mg) was 149 ng·h/mL, the AUC(0-t) ([3]; 5 mg, single oral 5 mg) was 128 ng·h/mL and the Cmax ([3]; 5 mg, single oral 5 mg) was 22.7 ng/mL. For the same compound, the half-life ([3]; 5 mg, single oral 5 mg) was 31.3 h, the Tmax ([3]; 5 mg, single oral 5 mg) was 1.55 h and the AUC from 0 to 24 h ([3]; 10 mg, single oral 10 mg) was 159 ng·h/mL. For the same compound, the AUC(0-inf) ([3]; 10 mg, single oral 10 mg) was 311 ng·h/mL, the AUC(0-t) ([3]; 10 mg, single oral 10 mg) was 284 ng·h/mL and the Cmax ([3]; 10 mg, single oral 10 mg) was 36 ng/mL. It also gave a half-life ([3]; 10 mg, single oral 10 mg) of 56.1 h, a Tmax ([3]; 10 mg, single oral 10 mg) of 1 h and an AUC from 0 to 24 h ([3]; 25 mg, single oral 25 mg) of 654 ng·h/mL. It also gave an AUC(0-inf) ([3]; 25 mg, single oral 25 mg) of 1540 ng·h/mL, an AUC(0-t) ([3]; 25 mg, single oral 25 mg) of 1450 ng·h/mL and a Cmax ([3]; 25 mg, single oral 25 mg) of 108 ng/mL. It also gave a half-life ([3]; 25 mg, single oral 25 mg) of 65.5 h, a Tmax ([3]; 25 mg, single oral 25 mg) of 2.01 h and an AUC from 0 to 24 h ([3]; 50 mg, single oral 50 mg) of 1110 ng·h/mL. The AUC(0-inf) ([3]; 50 mg, single oral 50 mg) was 2150 ng·h/mL, the AUC(0-t) ([3]; 50 mg, single oral 50 mg) was 2080 ng·h/mL and the Cmax ([3]; 50 mg, single oral 50 mg) was 168 ng/mL. It also gave a half-life ([3]; 50 mg, single oral 50 mg) of 51.9 h, a Tmax ([3]; 50 mg, single oral 50 mg) of 2.53 h and an AUC from 0 to 24 h ([3]; 100 mg, single oral 100 mg) of 1930 ng·h/mL. For the same compound, the AUC(0-inf) ([3]; 100 mg, single oral 100 mg) was 4740 ng·h/mL, the AUC(0-t) ([3]; 100 mg, single oral 100 mg) was 4490 ng·h/mL and the Cmax ([3]; 100 mg, single oral 100 mg) was 264 ng/mL. It also gave a half-life ([3]; 100 mg, single oral 100 mg) of 59.8 h, a Tmax ([3]; 100 mg, single oral 100 mg) of 3 h and an AUC from 0 to 24 h ([3]; 200 mg, single oral 200 mg) of 4080 ng·h/mL. It also gave an AUC(0-inf) ([3]; 200 mg, single oral 200 mg) of 10500 ng·h/mL, an AUC(0-t) ([3]; 200 mg, single oral 200 mg) of 9840 ng·h/mL and a Cmax ([3]; 200 mg, single oral 200 mg) of 431 ng/mL. The half-life ([3]; 200 mg, single oral 200 mg) was 65.2 h, the Tmax ([3]; 200 mg, single oral 200 mg) was 3 h and the concentration at 9 h ([3]; plasma at 9 h after single oral 1 mg) was 0.384 ng/mL. For the same compound, the concentration at 9 h ([3]; plasma at 9 h after single oral 2.5 mg) was 1.54 ng/mL, the concentration at 9 h ([3]; plasma at 9 h after single oral 5 mg) was 2.68 ng/mL and the concentration at 9 h ([3]; plasma at 9 h after single oral 10 mg) was 4.6 ng/mL. For the same compound, the concentration at 9 h ([3]; plasma at 9 h after single oral 25 mg) was 21.9 ng/mL, the concentration at 9 h ([3]; plasma at 9 h after single oral 50 mg) was 39.3 ng/mL and the concentration at 9 h ([3]; plasma at 9 h after single oral 100 mg) was 86 ng/mL. The concentration at 9 h ([3]; plasma at 9 h after single oral 200 mg) was 199 ng/mL.
